# Measured values: patent publication US4939177A, “Use of avarol for the control of AIDS and ARC” (Merz + Co. GmbH & Co., priority 1986, dated 1990)
# Where two headings read alike, the source gives them in different places.
# Tests used:
# Lethal dose in rats = details: rat, in vivo; male Sprague-Dawley rats, treatment for 5 days; read-out: 50% lethal dose
# Protocol: From previous experiments with NMRI mice, bearing L5178y cells, it is known that the chemotherapeutical dose of avarol is in the range of 1-50 mg/kg at a 50% lethal dose of 269.1 mg/kg (Muller et al., Cancer Res. 45: 4822-4826; 1985). The 50% lethal dose (treatment for 5 days) for male Sprague-Dawley rats was determined to be 235.7 mg/kg. Therefore, daily doses of avarol of 1-30 mg/kg/injection were chosen for the following in vivo studies.
# [1] = test system: Interferon gamma production by peripheral human lymphocytes; experiment: Interferon-gamma production by human lymphocytes (buffy coat cells), EIA; format: cell-based
# Protocol: It is therefore advantageous that an anti-AIDS chemotherapeutic agent is provided with the ability to induce gamma Interferon in T-lymphocytes. […] The experiments were performed in vitro, using peripheral human lymphocytes (buffy coat cells) in culture.
# Buffy coat cells were prepared by centrifugation on Ficoll-Plaque gradient and washed two times. Subsequently the cells were divided and adjusted to a concentration of 5×1,000,000 cells/ml.
# Levels of Interferon were defined by an Enzymeimmunoassay (EIA). Interferon gamma: 96 well flat bottom plates (Greiner, Neurtingen) were coated with a monoclonal antibody recognizing Interferon gamma. 200 μl of the supernatant sample were added per well together with Interferon gamma-peroxidase coupled (50 μl), consisting of the same antibody as used for coating. […] The enzymatic reaction is completed by a preparation containing hydrogen peroxide substrate. The reaction is stopped within 15 minutes by 100 μl of sulfuric acid per well. The amount of Interferon is defined by comparing the extinction of the test sample with a standard curve produced by known values of Interferon gamma.
# [2] = test system: plaque forming cells in the spleen of mice; experiment: Jerne plaque test, plaque forming cells in spleen of SRBC-immunized mice; format: in vivo, mouse; details: for Plaque forming cells per 10^6 cells: 30 mg/kg i.p.
# Protocol: Concerning the functional consequences of the compound onto B-cells in vitro, I found (previous section) that both the IgG and the IgM secretion is stimulated in cultures of human lymphoid cells (unseparated) which are treated with non-cytostatic concentrations of avarol. This finding is supported by the results of the Jerne plaque test.
# The plaque test of Jerne and Nordin (Science 140: 405-406, 1963) was used with the modification given by Cunningham and Szenberg (Immunolog. 14: 599-601; 1968). Briefly, 8 male NMRI mice per group (20-22 g) were immunized on day 0 by i.p. injection of 5×10^8 SRBC in 0.5 ml saline. Treatment with avarol was done i.p. either from day 0 to day +4 or from day -4 to day 0. One hour after the last drug administration, the animals were killed by a blow on the head and bled. The spleens were removed and a single cell suspension was prepared by teasing the pooled spleens through a 120-μm mesh sieve. After lysing the erythrocytes by 0.15M NH4 Cl, the cells were washed twice in Hank's balanced salt solution containing 29 ml of 7.5% NaHCO3 and 10 ml of 1M HEPES buffer solution per one liter. The cells were resuspended in 2 ml per spleen. Six Cunningham chambers per group were filled with a mixture of 0.5 ml of a suitable dilution of spleen cells (generally 1:100), 0.5 ml of a suspension of SRBC (10^9 /ml) and 125 μl of normal guinea pig complement. After 90-120 min of incubation at 37° C., the number of plaques was counted. Plaques per spleen or per 10^6 spleen cells were calculated.
# male NMRI mice = details: cited from earlier work
# [3] = test system: DTH to oxazolone in NMRI mice; experiment: Contact allergy to oxazolone; format: in vivo, mouse; details: 3-30 mg/kg i.p., day -1 to +2 or day +6 to +8, P>0.05
# Protocol: Allergic contact dermatitis against oxazolone was produced according to the method of Asherson and Ptak (Immunol. 15: 405-416; 1968) as well as those of Bure and Degrand (Agents and Actions 9: 534; 1979). Male NMRI mice (20-22 g; 10/group) were sensitized with 100 μl of a 2% oxazolone in acetone solution onto the shaved abdomen (day 0). Animals were treated with avarol (i.p.) daily from day -1 to +2 or from day +6 to +8; control group was treated with deoxymethasone (Casella-Hoechst) as a standard per os at a daily dose of 30 mg/kg for the same period of time as for avarol. Seven days after sensitization 10 μl of a 3% oxazolane (this concentration was previously found to give more reproducible results than the lower 2% concentration) solution were topically applied onto the inner side of one ear, whereas the other ear received only acetone. […] Treated groups were compared with controls using the U-test.
# HTLV-III p24 = format: cell-based; details: for Expression of p24 (in %): none = 100
# lymphocyte cultures = experiment: [^3 H]-dThd incorporation in lymphocyte cultures from avarol-pretreated mice; format: cell-based, mouse; details: pretreatment of mice; macrophage-containing and macrophage-depleted cultures
# Description: The effect of avarol on the lymphoid system was studied both in vitro and in vivo. […] The stimulatory influence of avarol on humoral immune responses is not accompanied by a change of the antibody-mediated hypersensitivity reaction, as measured by the Arthus reaction. No significant influence of avarol on the cellular immune system in vivo (rats or mice) was found, as taken from studies on delayed-type hypersensitivity reactions to sheep red blood cells and to oxazolone.
structure (smiles),measurement,setting,value
"CC1=CCC[C@H]2[C@](C)(Cc3cc(O)ccc3O)[C@@H](C)CC[C@]12C [Avarol, 2-[(1R)-1,2,3,4,4a,7,8,8aα-octahydro-1β,2β,4aβ,5-tetramethyl-1-naphthylmethyl]-1,4-benzenediol]",LD50 at 120 h,Lethal dose in rats,236 mg/kg
same,Titer of Interferon-gamma,"[1]; 0.2 μg/ml, 0 hours, untreated 2",4 Units/ml of supernatant
same,Titer of Interferon-gamma,"[1]; 0.2 μg/ml, 24 hours, untreated 5",17 Units/ml of supernatant
same,Titer of Interferon-gamma,"[1]; 0.2 μg/ml, 48 hours, untreated 3",24 Units/ml of supernatant
same,Titer of Interferon-gamma,"[1]; 0.2 μg/ml, 72 hours, untreated 7",26 Units/ml of supernatant
same,Titer of Interferon-gamma,"[1]; 0.2 μg/ml, 96 hours, untreated 4",21 Units/ml of supernatant
same,Titer of Interferon-gamma,"[1]; 0.5 μg/ml, 0 hours, untreated 2",4 Units/ml of supernatant
same,Titer of Interferon-gamma,"[1]; 0.5 μg/ml, 24 hours, untreated 5",23 Units/ml of supernatant
same,Titer of Interferon-gamma,"[1]; 0.5 μg/ml, 48 hours, untreated 3",74 Units/ml of supernatant
same,Titer of Interferon-gamma,"[1]; 0.5 μg/ml, 72 hours, untreated 7",89 Units/ml of supernatant
same,Titer of Interferon-gamma,"[1]; 0.5 μg/ml, 96 hours, untreated 4",118 Units/ml of supernatant
same,Titer of Interferon-gamma,"[1]; 1.0 μg/ml, 0 hours, untreated 2",3 Units/ml of supernatant
same,Titer of Interferon-gamma,"[1]; 1.0 μg/ml, 24 hours, untreated 5",20 Units/ml of supernatant
same,Titer of Interferon-gamma,"[1]; 1.0 μg/ml, 48 hours, untreated 3",52 Units/ml of supernatant
same,Titer of Interferon-gamma,"[1]; 1.0 μg/ml, 72 hours, untreated 7",62 Units/ml of supernatant
same,Titer of Interferon-gamma,"[1]; 1.0 μg/ml, 96 hours, untreated 4",73 Units/ml of supernatant
same,optimal dose for Interferon gamma induction,[1]; in vitro,0.5 µg/mL
same,Plaque forming cells per 10^6 cells,"[2]; from 0 to +4 days, untreated 2,782","3,316"
same,Plaque forming cells per 10^6 cells,"[2]; from -4 to 0 days, untreated 2,259","2,202"
same,higher number of plaque forming cells/spleen,"[2]; 30 mg/kg, day 0 to day +4",28%
same,increase of plaque forming cells/spleen,"[2]; 30 mg/kg, day -4 to day 0",21%
same,50% lethal dose,"male NMRI mice; NMRI mice, previous experiments",269.1 mg/kg
same,Acute toxicity LD10,"male NMRI mice; male NMRI mice, acute",156.4 mg compound/kg
same,Subacute toxicity LD10,"male NMRI mice; male NMRI mice, subacute",138.6 mg compound/kg
same,Subacute toxicity LD50,"male NMRI mice; male NMRI mice, subacute",218.4 mg compound/kg
same,"influence on DTH to oxazolone, in words",[3],did not influence significantly
same,Expression of p24 (in %),HTLV-III p24; 0.1 μg/ml,28%
same,Expression of p24 (in %),HTLV-III p24; 1 μg/ml,14%
same,Expression of p24 (in %),HTLV-III p24; 5 μg/ml,14%
same,"expression of HTLV-III protein p24, in words",HTLV-III p24; H9-HTLV-III cells,significant reduction
same,"[^3 H]-dThd incorporation rate, in words",lymphocyte cultures,higher [^3 H]-dThd incorporation rate
